# Measurements published in patent publication US20220280644A1, “"TRPswitch" - A STEP FUNCTION CHEMO-OPTOGENETIC LIGAND” (UNIVERSITY OF UTAH RESEARCH FOUNDATION, priority 2019, published 2022).
# Key:
# zebrafish Trpa1b = assay: Whole-cell patch-clamp of HEK293T cells expressing zebrafish Trpa1b; format: cell-based
# Method: Immortalized HEK293T cells or human colonic fibroblast cells (CCD-18Co; ATCC) were used. HEK293T cells were plated on […] cover slips and transiently transfected with 10 μg of Trpa1b plasmid (pCMV-zTrpa1b-FLAG) (SEQ ID NO:3) and 5 μg of mNeonGreen cDNA (Allele Biotechnology), then grown in a 6 cm plate for 24-48 h. CCD-18Co were cultured in Eagle's minimal essential medium with 10% FBS, 1× penicillin and streptomycin. CCD-18Co cells were plated on 12 mm cover slips and transiently transfected with 5 μg of zTrpa1b plasmid (pCMV-zTrpa1b-FLAG) together with 5 μg of mNeonGreen cDNA (Allele Biotechnology), then grown in a […] plate for 48-72 h. After this time, the cover slips were transferred to a recording chamber containing an extracellular solution composed of 145 mM sodium gluconate, 4 mM KCl, 3 mM MgCl2, 10 mM D-glucose, 10 mM HEPES; pH 7.4 adjusted with NaOH. The internal solution contained 122 mM cesium methane sulfonate, 1.8 mM MgCl2, 9 mM EGTA, 14 mM creatine phosphate (sodium salt), 4 mM Mg-ATP, 0.3 mM Na-GTP, 10 mM HEPES, pH 7.2 adjusted with CsOH. Borosilicate glass pipettes with a resistance of 3-5 MO were used. Whole cell currents were measured on an Axopatch 200B amplifier (Molecular De-vices) under the control of pClamp software. Signals were digitized through a Digidata1550B interface (Molecular Devices). Currents were filtered at 5 kHz (lowpass, Bessel) and sampled at 10 kHz prior to analysis with Clampfit software (Molecular Devices). All the plots and statistical tests were performed on Excel (Microsoft corp.). Basal Trpa1b whole cell currents were measured with a ramp protocol (˜100 to +100 mV, at a holding potential of 0 mV). Photoactive compounds were perfused into the recording chamber and a fluorescent light generated by mercury vapor short arc (U-HGLGPS, OLYMPUS) filtered through an ET-ECFP 434/17 nm filter and through a ET-mCherry 560 nm filter (Chroma Technology) was switched “on” and “off” for 10 s. All experiments were performed at room temperature. The p values were calculated using a two-tailed, paired Student's t-test.
# endogenous human TRPA1 = target: T1, endogenous human TRPA1 (Homo sapiens, UniProt O75762); assay: Whole cell current in untransfected CCD-18Co cells; format: cell-based; settings: untransfected CCD-18Co
# T1 construct: human colonic fibroblast cells, CCD-18Co, which express human TRPA1 endogenously; endogenous in cells; host or cells: CCD-18Co (ATCC), untransfected
# Method: Immortalized HEK293T cells or human colonic fibroblast cells (CCD-18Co; ATCC) were used. HEK293T cells were plated on […] cover slips and transiently transfected with 10 μg of Trpa1b plasmid (pCMV-zTrpa1b-FLAG) (SEQ ID NO:3) and 5 μg of mNeonGreen cDNA (Allele Biotechnology), then grown in a 6 cm plate for 24-48 h. CCD-18Co were cultured in Eagle's minimal essential medium with 10% FBS, 1× penicillin and streptomycin. CCD-18Co cells were plated on 12 mm cover slips and transiently transfected with 5 μg of zTrpa1b plasmid (pCMV-zTrpa1b-FLAG) together with 5 μg of mNeonGreen cDNA (Allele Biotechnology), then grown in a […] plate for 48-72 h. After this time, the cover slips were transferred to a recording chamber containing an extracellular solution composed of 145 mM sodium gluconate, 4 mM KCl, 3 mM MgCl2, 10 mM D-glucose, 10 mM HEPES; pH 7.4 adjusted with NaOH. The internal solution contained 122 mM cesium methane sulfonate, 1.8 mM MgCl2, 9 mM EGTA, 14 mM creatine phosphate (sodium salt), 4 mM Mg-ATP, 0.3 mM Na-GTP, 10 mM HEPES, pH 7.2 adjusted with CsOH. […] Whole cell currents were measured on an Axopatch 200B amplifier (Molecular De-vices) under the control of pClamp software. […] Basal Trpa1b whole cell currents were measured with a ramp protocol (˜100 to +100 mV, at a holding potential of 0 mV). […] The p values were calculated using a two-tailed, paired Student's t-test.
# [1] = UV-Vis absorbance, E/Z isomerization with violet and green light; format: physicochemical; settings: UV-Vis absorbance in DMSO
# Method: Compounds were dissolved in DMSO at 250 μM and 260 μM for TRPswitch-A and TRPswitch-B, respectively and UV-Vis absorbance was measured using a NanoDrop 1000 (Thermo Scientific).
# [2] = Photostationary state (PSS) determination; format: physicochemical
# Excerpt: […] In the latter case, the pure Z isomer spectrum was estimated using methods described in previous publications.
# [3] = tested on: wild-type zebrafish larvae; assay: Behavioral assay: light-induced motion response of wild-type larvae; format: in vivo, Zebrafish (Danio rerio)
# Method: A total of 1,000 compounds were selected from the ChemBridge Corp. catalog. Compounds were dissolved in DMSO at a stock concentration of 1 μg/μL (˜1.5 mM). The library was screened at a 1:100 dilution in E3 solution for a final concentration of ˜15 μM. Negative controls were treated with an equal volume of DMSO. Groups of 3 larvae at 3 days post fertilization (dpf) were distributed into the wells of 96-well clear bottom black microplates (07-200-567; Fisher Scientific) in 150 μL E3 before the addition of small molecules. Stock solutions of compounds were added directly to zebrafish in the wells of a 96 well plate (Corning 3631), mixed, and allowed to incubate for 1 h in the dark at 28.5° C. prior to behavioral evaluation in the behavioral assay. Ordering information: 1 (5533696; ChemBridge); 3 (5538408; ChemBridge).
# Larvae in each of the wells were exposed to four 1 second flashes of light stimulus in the following order: 450-500 nm (WL1), 415-455 nm (WL2), 352-402 nm (WL3), white light (WL4), with a 5 second inter-stimulus interval. Digital video recording was performed for 5 seconds before the first light stimuli and continued throughout the stimulation sequence. Band pass filters (Semrock FF02-475/50, FF02-435/40, FF01-377/50) were used to restrict the excitation light to the indicated wavelengths. […] 290 frames of digital video were recorded per well at 10 FPS using an EMCCD camera (C9100; Hamamatsu) mounted on an inverted compound microscope (AxioObserver A1; Zeiss) with a NA 0.03 1.25× objective and a barrier with a 0.7 mm diameter opening to restrict light scattering to the sample. MetaMorph software (Molecular Devices) was used to control the execution of TTL signals and camera capture using the built-in stream acquisition with trigger function. Each video was saved for review. Light stimuli were generated with an ozone free 300-Watt xenon bulb housed in a Lambda LS illuminator (Sutter Instruments). A dichroic mirror (T510LPXRXT; Chroma) was used for appropriate excitation of samples and bright field acquisition. Schott longpass absorption glass (RG610; Chroma) was added in the transmitted light path to reduce unwanted excitation to the well and to provide sufficient light for video recording. All behavioral experiments were conducted at room temperature. […]
# To analyze digital video recordings, custom MetaMorph software scripts were used to automatically threshold the video to identify the area of larvae in each frame. Threshold images of the frames after each light activation event were overlaid to calculate a new combined threshold area. The motion index was calculated as the percentage change between the threshold area in the frame right before light activation and the new combined threshold area. This motion index correlates with the overall amount of motion in the well.
# Trpa1b = assay: Heartbeat interruption in larvae expressing Trpa1b in cardiomyocytes; format: in vivo, zebrafish; settings: 20 μM
# Method: Heartbeat interruption experiments were performed in vivo on 2 dpf Tg(cm/c2:Trpa1b-2A-EGFP) larvae in a Trpa1b^−/− background. Larvae were pretreated with 20 μM of TRPswitch-A or TRPswitch-B in E3 at a final concentration of 1% DMSO for 1 h in the dark at 28.5° C. before experimental manipulation. Immediately prior to the onset of experiments, E3 solution was replaced with 0.2 mg/mL tricaine (Sigma, A5040) in E3 for anesthetizing the larvae. Violet light (352-402 nm) and green light (500-600 nm) were used for E to Z and Z to E isomerization, respectively. Violet and green light excitation were achieved using a band pass filter FF01-377/50 and an et500lp long pass barrier filter, respectively, together with a t600plxxr dichroic mirror and a 300-Watt xenon bulb light source (Sutter Instrument). Experiments were performed using a NA 0.6 40× air objective at room temperature. The zebrafish heart in the whole field of view was illuminated with 1 s violet light followed by various lengths of green light as indicated. Ventricle width measurement was performed using the ImageJ ‘measure’ function on the widest outer ventricle width every 100 ms.
# [4] = Aqueous solubility observation; format: physicochemical
# [5] = Z→E thermal isomerisation kinetics; format: physicochemical
# Method: In order to determine the Z→E thermal isomerisation kinetics in DMSO-d6 a ˜20 mM solution of the relevant compound was irradiated using a Luzchem LZC-4V photoreactor fitted with 12×8 W LZC-420 lamps (420 nm peak emission) until no further change was observable by ^1H NMR. For 30% water:DMSO samples, a 15 μM solution of the relevant compound was irradiated in a quartz cuvette using 365 nm LEDs (3×800 mW Nichia NCSU276A) until no further change was observed by UV-Vis spectroscopy. Compounds (˜25 μM solutions in DMSO) were treated analogously. In the case of compounds studied by NMR, the change in Z-isomer percentage was followed as a function of time through integration of the relevant peaks. […]
# For data collected via ^1H NMR, the natural log of the Z isomer concentration was plotted against time to yield a straight line implying first order kinetics. The gradient of this line was used to determine the rate constant for Z→E conversion from which the thermal half-life could be calculated:
# For data collected via UV-Vis Spectroscopy, absorbance data at a fixed wavelength was fitted using the following, first order equation: […]
# where k represents the rate constant; A∞, A0 and At are the absorbances of the pure E-state, Z-rich state, and time t, respectively. […]
# Trpa1b mutant larvae = settings: previously identified; cited from earlier work
# [6] = tested on: wild-type zebrafish larvae; settings: reference [23]; cited from earlier work
# [7] = UV-Vis spectroscopy in 30% water:DMSO, extrapolated pure Z spectrum, listed as TRPswitch-A
# T1 sequence (O75762 whole entry): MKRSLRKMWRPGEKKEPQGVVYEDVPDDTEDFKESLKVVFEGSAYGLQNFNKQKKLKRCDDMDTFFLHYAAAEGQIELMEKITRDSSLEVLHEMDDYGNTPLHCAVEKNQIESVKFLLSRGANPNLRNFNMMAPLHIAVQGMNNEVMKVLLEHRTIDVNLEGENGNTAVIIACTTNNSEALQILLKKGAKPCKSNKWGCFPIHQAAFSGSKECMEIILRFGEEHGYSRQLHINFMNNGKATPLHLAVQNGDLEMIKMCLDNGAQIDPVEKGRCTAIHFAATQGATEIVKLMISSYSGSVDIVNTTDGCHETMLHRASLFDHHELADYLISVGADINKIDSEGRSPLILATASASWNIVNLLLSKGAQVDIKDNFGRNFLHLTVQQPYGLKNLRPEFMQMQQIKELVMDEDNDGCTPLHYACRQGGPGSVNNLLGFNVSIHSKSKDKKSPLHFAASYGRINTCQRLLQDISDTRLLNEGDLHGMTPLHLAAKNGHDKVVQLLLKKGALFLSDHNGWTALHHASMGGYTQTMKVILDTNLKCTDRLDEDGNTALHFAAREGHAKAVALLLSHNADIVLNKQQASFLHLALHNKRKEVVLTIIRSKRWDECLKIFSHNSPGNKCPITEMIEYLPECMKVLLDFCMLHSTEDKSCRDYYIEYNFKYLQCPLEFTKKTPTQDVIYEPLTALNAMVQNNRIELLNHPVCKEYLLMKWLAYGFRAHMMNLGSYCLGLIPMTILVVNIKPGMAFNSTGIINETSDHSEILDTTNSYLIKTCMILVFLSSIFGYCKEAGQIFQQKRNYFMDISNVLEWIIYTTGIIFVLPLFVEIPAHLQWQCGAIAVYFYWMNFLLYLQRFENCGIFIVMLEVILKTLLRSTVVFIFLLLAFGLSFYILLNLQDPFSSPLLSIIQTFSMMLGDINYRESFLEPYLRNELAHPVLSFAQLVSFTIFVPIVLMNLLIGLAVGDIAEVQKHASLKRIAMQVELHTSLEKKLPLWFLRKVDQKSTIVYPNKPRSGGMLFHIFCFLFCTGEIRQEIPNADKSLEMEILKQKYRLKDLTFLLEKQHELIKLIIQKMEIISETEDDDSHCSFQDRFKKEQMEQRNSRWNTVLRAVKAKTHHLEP
structure (smiles),measurement,setting,value
"C=CCN=C=S [AITC, allyl isothiocyanate, reference compound]",agonist-activated Trpa1b currents,zebrafish Trpa1b; positive control,activated currents
same,response of human TRPA1 current,endogenous human TRPA1,responded
"O=C(Nc1ccc(/N=N/c2ccccc2)c(NC(=O)c2ccco2)c1)c1ccco1 [Compound 1, (E)-N,N′-(4-(phenyldiazenyl)-1,3-phenylene)bis(furan-2-carboxamide)]",E/Z photoswitching with violet and green light,[1],incomplete
same,365 nm PSS (E-Z),[2]; 1H NMR in DMSO-d6,79% Z
same,420 nm PSS (E-Z),[2]; 1H NMR in DMSO-d6,53% Z
same,495 nm PSS (Z-E),[2]; 1H NMR in DMSO-d6,71% E
same,Estimated 365 nm PSS (E-Z),[2]; [7],86% Z
same,Estimated 495 nm PSS (Z-E),[2]; [7],73% E
same,light-induced motion response (in vivo activity),"[3]; 3 dpf wild-type larvae, 1 s flashes WL1-WL4",light-induced motion response across multiple wavelengths
same,bandwidth with the most activity,[3]; light-induced motion response,415-455 nm
same,Trpa1b current upon violet light stimulation,"zebrafish Trpa1b; 10 μM, compared to baseline",high amplitude currents
same,Trpa1b photocurrent upon subsequent green light stimulation,"zebrafish Trpa1b; 10 μM, same cell",recovered to its baseline current magnitude
same,current density fold increment after subsequent pulse of green light,zebrafish Trpa1b; +100 mV,1.15±0.17 fold
same,current density fold increment upon violet light illumination,zebrafish Trpa1b; +100 mV,2.36±0.50 fold
same,current density fold increment after subsequent pulse of green light,zebrafish Trpa1b; −100 mV,3.71±1.31 fold
same,current density fold increment upon violet light illumination,zebrafish Trpa1b; −100 mV,4.35±1.44 fold
same,ventricle heartbeat after 1 s violet light,Trpa1b; 1 h pre-incubation,could be stopped
same,ventricular rhythm after 1 s green light,Trpa1b; after violet light,re-stored
"Cc1nn(C)c(C)c1/N=N/c1ccc(NC(=O)c2ccco2)cc1NC(=O)c1ccco1 [Compound 8, (E)-N,N′-(4-((1,3,5-trimethyl-1H-pyrazol-4-yl)diazenyl)-1,3-phenylene)bis(furan-2-carboxamide)]",aqueous solubility,[4],some aqueous solubility issues
same,E/Z photoswitching with violet and green light,[1],quantitative photoswitching in both directions
same,thermal half-lives,[5],long thermal half-lives
Cc1cc(/C=C2/SC(=S)NC2=O)c(C)n1-c1cccnc1 [optovin],activity in Trpa1b mutant zebrafish,Trpa1b mutant larvae,abolished
same,effect of DABCO on light-induced motion response,"[3]; DABCO, singlet oxygen quencher",abolished
same,suppression of response by DABCO,[6],completely suppress
